From patent US20100063026A1, “ANTIBACTERIAL QUINOLINE DERIVATIVES” (priority 2007, published 2010)
≈ marks a conversion by molar mass, not a printed value.

Legend:
[1] = tested on: Streptococcus pneumoniae (ATCC6305); experiment: Microtitre plate IC90 determination against non-mycobacterial strains: S. pneumoniae; type: cell-based; details: 90% inhibitory concentration for bacterial growth, 37° C., resazurin fluorescence; for IC90: Streptococcus pneumoniae, ATCC6305, 24 h, read-out: IC90 SPN 1 6305; for IC90 SPN 1 6305: 24 hours
Experimental: (§1) The bacteria used in this study were grown overnight in flasks containing 100 ml Mueller-Hinton Broth (Becton Dickinson-cat. no. 275730) in sterile de-ionized water, with shaking, at 37° C. Stocks (0.5 ml/tube) were stored at -70° C. until use. Bacteria titrations were performed in microtiter plates to detect the TCID50, in which the TCID50 represents the dilution that gives rise to bacterial growth in 50% of inoculated cultures. In general, an inoculum level of approximately 100 TCID50 was used for susceptibility testing. […] Therefore resazurin (0.6 mg/ml) was added in a volume of 20 μl to all wells 3 hours after inoculation, and the plates were re-incubated overnight. A change in colour from blue to pink indicated the growth of bacteria.

[2] = tested on: Staphylococcus aureus (ATCC29213); experiment: Microtitre plate IC90 determination against non-mycobacterial strains: S. aureus; type: cell-based; details: 90% inhibitory concentration for bacterial growth, 37° C., resazurin fluorescence; for IC90: Staphylococcus aureus, ATCC29213, 24 h, read-out: IC90 STA 1 B29213; for IC90 STA 1 B29213: 24 hours
Experimental: as §1

M. smegmatis ATCC607 = experiment: In-vitro anti-bacterial activity against strain M. smegmatis ATCC607; details: for IC90: Mycolicibacterium smegmatis, ATCC607, 48 h, read-out: IC90 MSM 1 ATCC607, 90% inhibitory concentration for bacterial growth, 37° C., Alamar Blue fluorescence; for IC90 MSM 1 ATCC607: 90% inhibitory concentration for bacterial growth, 48 hours, 37° C., Alamar Blue fluorescence
Experimental: Flat-bottom, sterile 96-well plastic microtiter plates were filled with 180 μl of sterile deionized water, supplemented with 0.25% BSA. Subsequently, stock solutions (7.8× final test concentration) of compounds were added in 45 μl volumes to a series of duplicate wells in column 2 so as to allow evaluation of their effects on bacterial growth. Serial five-fold dilutions (45 μl in 180 μl) were made directly in the microtiter plates from column 2 to 11 using a customised robot system (Zymark Corp., Hopkinton, Mass.). Pipette tips were changed after every 3 dilutions to minimize pipetting errors with high hydrophobic compounds. Untreated control samples with (column 1) and without (column 12) inoculum were included in each microtiter plate. Approximately 250 CFU per well of bacteria inoculum, in a volume of 100 μl in 2.8× Mueller-Hinton broth medium, was added to the rows A to H, except column 12. The same volume of broth medium without inoculum was added to column 12 in row A to H. The cultures were incubated at 37° C. for 48 hours in a humidified 5% CO2 atmosphere (incubator with open air valve and continuous ventilation). At the end of incubation, two days after inoculation, the bacterial growth was quantitated fluorometrically. Therefore Alamar Blue (10×) was added to all wells in a volume of 20 μl and plates were incubated for another 2 hours at 50° C.
The fluorescence was read in a computer-controlled fluorometer (Cytofluor, Biosearch) at an excitation wavelength of 530 nm and an emission wavelength of 590 nm (gain 30). The percentage growth inhibition achieved by the compounds was calculated according to standard methods and expressed as IC90 (μg/ml) which defines the 90% inhibitory concentration for bacterial growth.

Compound	IC90 [1] [µg/mL]	IC90 [2] [µg/mL]	IC90 (M. smegmatis ATCC607) [µg/mL]	IC90 SPN 1 6305 [1] [µg/mL]	IC90 STA 1 B29213 [2] [µg/mL]	IC90 MSM 1 ATCC607 (M. smegmatis ATCC607) [µg/mL]
COc1nc2ccc(Br)cc2cc1C(c1ccccc1)C(O)(CCCCNC1CC2CCC1C2)c1ccc2ccccc2c1 (single isomer, unassigned) [Compound 38]	2.6 (≈ 4 µM)	10.3 (≈ 15.9 µM)	2.1 (≈ 3.23 µM)	–	–	–
COc1nc2ccc(Br)cc2cc1C(c1ccccc1)C(O)(CCCCN(C)CCc1ccccn1)c1ccccc1 (stereo not drawn) [Compound 7]	–	–	–	2.0 (≈ 3.2 µM)	2.0 (≈ 3.2 µM)	2.0 (≈ 3.2 µM)
COc1nc2ccc(Br)cc2cc1C(c1ccccc1)C(O)(CCCCc1ccccc1)CCCCN1CC2CC1CN2Cc1ccccc1 (single isomer, unassigned) [Compound 17]	–	–	–	0.8 (≈ 1.09 µM)	2.3 (≈ 3.14 µM)	0.7 (≈ 0.955 µM)
COc1nc2ccccc2cc1C(c1ccccc1)C(O)(CCCCN1CC2CC1CN2)c1ccc2ccccc2c1 (single isomer, unassigned) [Compound 18]	1.8 (≈ 3.23 µM)	1.8 (≈ 3.23 µM)	1.8 (≈ 3.23 µM)	–	–	–
COc1nc2ccc(Br)cc2cc1C(c1ccccc1)C(O)(CCCCN1CCCN(C)CC1)c1ccc2ccccc2c1 (stereo not drawn) [Compound 34d]	–	–	–	0.4 (≈ 0.613 µM)	2.1 (≈ 3.22 µM)	2.1 (≈ 3.22 µM)
COc1nc2ccc(Br)cc2cc1C(c1ccccc1)C(O)(CCCCN(C)CCN(C)C)c1ccccc1 (single isomer, unassigned) [Compound 51]	9.4 (≈ 15.9 µM)	9.4 (≈ 15.9 µM)	9.4 (≈ 15.9 µM)	–	–	–
COc1nc2ccc(Br)cc2cc1C(c1ccccc1)C(O)(CCCCN1CC2CC1CN2Cc1ccccc1)c1ccc2ccccc2c1 (single isomer, unassigned) [Compound 20]	0.6 (≈ 0.826 µM)	–	–	–	11.5 (≈ 15.8 µM)	2.3 (≈ 3.16 µM)
COc1nc2ccc(Br)cc2cc1C(c1ccccc1)C(O)(CCCCN1CC2CC1CN2Cc1ccccc1)CCCc1ccccc1 (single isomer, unassigned) [Compound 14]	2.6 (≈ 3.62 µM)	11.4 (≈ 15.9 µM)	3.6 (≈ 5.01 µM)	–	–	–
COc1nc2ccc(Br)cc2cc1C(c1ccccc1)C(O)(CCCCN1CC2CC1CN2Cc1ccccc1)c1ccc2ccccc2c1 (stereo not drawn) [Compound 22]	–	–	0.6 (≈ 0.826 µM)	2.9 (≈ 3.99 µM)	9.2 (≈ 12.7 µM)	–
COc1nc2ccc(Br)cc2cc1C(c1ccccc1)C(O)(CCCCN(C)CCc1ccccn1)c1ccccc1 (stereo not drawn) [Compound 8]	–	–	–	2.2 (≈ 3.52 µM)	2.0 (≈ 3.2 µM)	2.0 (≈ 3.2 µM)
COc1nc2ccc(Br)cc2cc1C(c1ccccc1)C(O)(CCCCN1CCCNCC1)c1ccccc1 (single isomer, unassigned) [Compound 47]	0.9 (≈ 1.53 µM)	1.9 (≈ 3.23 µM)	1.9 (≈ 3.23 µM)	–	–	–
COc1nc2ccc(Br)cc2cc1C(c1ccccc1)C(O)(CCCCN(C)CCc1ccccn1)c1ccccc1 (stereo not drawn) [Compound 6]	2.2 (≈ 3.52 µM)	2 (≈ 3.2 µM)	2 (≈ 3.2 µM)	–	–	–
COc1nc2ccc(Br)cc2cc1C(c1ccccc1)C(O)(CCCCN1CC2CC1CN2CC(C)C)c1ccc2ccccc2c1 (single isomer, unassigned) [Compound 53]	0.1 (≈ 0.144 µM)	2.2 (≈ 3.18 µM)	1.6 (≈ 2.31 µM)	–	–	–
COc1nc2ccc(Br)cc2cc1C(c1ccccc1)C(O)(CCCCN1CCC1)c1ccccc1 (single isomer, unassigned) [Compound 41]	–	–	1.7 (≈ 3.12 µM)	1.7 (≈ 3.12 µM)	1.7 (≈ 3.12 µM)	–
COc1nc2ccc(Br)cc2cc1C(c1ccccc1)C(O)(CCCCN1CCN(C2CCN(Cc3ccccc3)C2)CC1)c1ccc2ccccc2c1 (single isomer, unassigned) [Compound 32]	–	–	–	2.5 (≈ 3.19 µM)	2.5 (≈ 3.19 µM)	5.6 (≈ 7.14 µM)
COc1nc2ccc(Br)cc2cc1C(c1ccccc1)C(O)(CCCCN1CC2CC1CN2Cc1ccccc1)CCc1ccccc1 (single isomer, unassigned) [Compound 12]	2.2 (≈ 3.12 µM)	–	–	–	11.2 (≈ 15.9 µM)	2.2 (≈ 3.12 µM)
COc1nc2ccc(Br)cc2cc1C(c1ccccc1)C(O)(CCCCN1CC2CC1CN2Cc1ccccc1)c1ccccc1 (single isomer, unassigned) [Compound 49]	–	–	–	0.3 (≈ 0.443 µM)	2.1 (≈ 3.1 µM)	2.1 (≈ 3.1 µM)
COc1nc2ccc(Br)cc2cc1C(c1ccccc1)C(O)(CCCCN1CCC(N2CCCCC2)CC1)CCc1ccccc1 (single isomer, unassigned) [Compound 10]	–	–	–	2.2 (≈ 3.21 µM)	2.2 (≈ 3.21 µM)	2.4 (≈ 3.5 µM)

Compound	IC90 [1] [µg/mL]	IC90 [2] [µg/mL]	IC90 (M. smegmatis ATCC607) [µg/mL]	IC90 SPN 1 6305 [1] [µg/mL]	IC90 STA 1 B29213 [2] [µg/mL]	IC90 MSM 1 ATCC607 (M. smegmatis ATCC607) [µg/mL]
COc1nc2ccc(Br)cc2cc1C(c1ccccc1)C(O)(CCCCN1CCN(C2CCN(Cc3ccccc3)C2)CC1)c1ccc2ccccc2c1 (single isomer, unassigned) [Compound 30b]	–	–	–	31 (≈ 39.5 µM)	62 (≈ 79.1 µM)	31 (≈ 39.5 µM)
COc1nc2ccc(Br)cc2cc1C(c1ccccc1)C(O)(CCCCN1CCCN(C)CC1)c1ccc2ccccc2c1 (stereo not drawn) [Compound 35c]	–	–	–	0.4 (≈ 0.613 µM)	2.1 (≈ 3.22 µM)	1.5 (≈ 2.3 µM)
COc1nc2ccc(Br)cc2cc1C(c1ccccc1)C(O)(CCCCN1CCC(N2CCCCC2)CC1)c1ccc2ccccc2c1 (single isomer, unassigned) [Compound 28]	–	–	2.5 (≈ 3.54 µM)	2.8 (≈ 3.96 µM)	2.2 (≈ 3.11 µM)	–
COc1nc2ccc(Br)cc2cc1C(c1ccccc1)C(O)(CCCCNC1CC2CCC1C2)c1ccc2ccccc2c1 (stereo not drawn) [Compound 39]	0.4 (≈ 0.616 µM)	1.8 (≈ 2.77 µM)	–	–	–	1.8 (≈ 2.77 µM)
COc1nc2ccc(Br)cc2cc1C(c1ccccc1)C(O)(CCCCN1CC2CC1CN2Cc1ccccc1)c1ccccc1 (single isomer, unassigned) [Compound 48]	0.5 (≈ 0.739 µM)	2.1 (≈ 3.1 µM)	2.4 (≈ 3.55 µM)	–	–	–
COc1nc2ccc(Br)cc2cc1C(c1ccccc1)C(O)(CCCCNC1CC2CCC1C2)c1ccc2ccccc2c1 (stereo not drawn) [Compound 40]	–	–	–	0.5 (≈ 0.77 µM)	1.6 (≈ 2.46 µM)	0.4 (≈ 0.616 µM)
COc1nc2ccc(Br)cc2cc1C(c1ccccc1)C(O)(CCCCN1CC2CC1CN2CCc1ccccc1)c1ccc2ccccc2c1 (single isomer, unassigned) [Compound 24]	–	–	2.3 (≈ 3.1 µM)	2.1 (≈ 2.83 µM)	11.7 (≈ 15.8 µM)	–
COc1nc2ccc(Br)cc2cc1C(c1ccccc1)C(O)(CCCCN1CCN(C2CCN(Cc3ccccc3)C2)CC1)c1ccc2ccccc2c1 (single isomer, unassigned) [Compound 30]	–	–	–	2.5 (≈ 3.19 µM)	2.5 (≈ 3.19 µM)	2.5 (≈ 3.19 µM)
COc1ccc(N2CCN(CCCCC(O)(c3ccc4ccccc4c3)C(c3ccccc3)c3cc4cc(Br)ccc4nc3OC)CC2)cc1 (single isomer, unassigned) [Compound 26]	18.4 (≈ 25.2 µM)	18.4 (≈ 25.2 µM)	18.4 (≈ 25.2 µM)	–	–	–
COc1nc2ccc(Br)cc2cc1C(c1ccccc1)C(O)(CCCCN1CCC1)c1ccccc1 (single isomer, unassigned) [Compound 42]	–	–	–	4.3 (≈ 7.88 µM)	8.6 (≈ 15.8 µM)	2.2 (≈ 4.03 µM)
COc1nc2ccc(Br)cc2cc1C(c1ccccc1)C(O)(CCCCN1CCN(C2CCN(Cc3ccccc3)C2)CC1)c1ccc2ccccc2c1 (single isomer, unassigned) [Compound 31]	–	–	–	15.6 (≈ 19.9 µM)	12.4 (≈ 15.8 µM)	4.4 (≈ 5.61 µM)
COc1nc2ccc(Br)cc2cc1C(c1ccccc1)C(O)(CCCCN(C)C1CCN(C)CC1)c1ccccc1 (single isomer, unassigned) [Compound 4]	2 (≈ 3.24 µM)	9.8 (≈ 15.9 µM)	2 (≈ 3.24 µM)	–	–	–
COc1nc2ccc(Br)cc2cc1C(c1ccccc1)C(O)(CCCCN1CC2CC1CN2CC(C)C)c1ccc2ccccc2c1 (stereo not drawn) [Compound 52]	0.5 (≈ 0.722 µM)	2.2 (≈ 3.18 µM)	2.2 (≈ 3.18 µM)	–	–	–
COc1nc2ccc(Br)cc2cc1C(c1ccccc1)C(O)(CCCCN(C)CCc1ccccn1)c1ccccc1 (stereo not drawn) [Compound 9]	–	–	–	2.2 (≈ 3.52 µM)	2.0 (≈ 3.2 µM)	2.0 (≈ 3.2 µM)
COc1nc2ccc(Br)cc2cc1C(c1ccccc1)C(O)(CCCCc1ccccc1)CCCCN1CC2CC1CN2Cc1ccccc1 (single isomer, unassigned) [Compound 16]	1.5 (≈ 2.05 µM)	–	0.6 (≈ 0.819 µM)	–	7.3 (≈ 9.96 µM)	–
COc1nc2ccc(Br)cc2cc1C(c1ccccc1)C(O)(CCCCCN1CCCN(C)CC1)c1ccc2ccccc2c1 (single isomer, unassigned) [Compound 55]	–	–	–	0.4 (≈ 0.6 µM)	2.1 (≈ 3.15 µM)	2.1 (≈ 3.15 µM)
COc1nc2ccc(Br)cc2cc1C(c1ccccc1)C(O)(CCCCN1CC2CC1CN2Cc1ccccc1)CCc1ccccc1 (single isomer, unassigned) [Compound 13]	–	–	–	2.5 (≈ 3.55 µM)	2.2 (≈ 3.12 µM)	5.6 (≈ 7.95 µM)
COc1nc2ccc(Br)cc2cc1C(c1ccc(Cl)cc1)C(O)(CCCCN1CC2CC1CN2Cc1ccccc1)c1ccc2ccccc2c1 (single isomer, unassigned) [Compound 37]	–	–	–	0.5 (≈ 0.657 µM)	2.7 (≈ 3.55 µM)	2.1 (≈ 2.76 µM)
